# Source: US11530210B2, “Substituted heteroaromatic pyrazolo-pyridines and their use as GLUN2B receptor modulators” (JANSSEN PHARMACEUTICA NV, priority 2019, dated 2022)
# Where a name gives a salt, the structure may show the parent alone.
# Target: T1, human GluN1/GluN2B NMDA receptors (Homo sapiens, UniProt Q13224)
# T1 construct: expressed in transfected cells
# Assay: Calcium flux (FLIPR) assay on cloned human NR1/GluN2B ion channels expressed in mammalian cells (standard and HTS variants)
# Type: cell-based
# Settings: cells expressing human GluN1/GluN2B, glutamate and glycine co-agonists
# Method: Effects of Test Articles on Cloned Human NR1/GuN2B Ion Channels Expressed in Mammalian Cells
# NMDA receptors are ion channels that are highly permeable to Ca^2+ ions, rendering it possible to monitor NMDA receptor function using cell-based calcium flux assay. In this assay, co-agonists glutamate and glycine are added to cells heterologously expressing human GluN1/GluN2B NMDA receptors to initiate cellular Ca^2+ influx. The time course of the changes in intracellular calcium is measured using a fluorescent dye and a FLIPR (Fluorometric Imaging Plate Reader) device.
# Twenty-four hours before measurements, the expression of the NMDA receptors in the stable cell line is induced with Tet-On inducible system in the presence of a non-selective NMDA receptor blocker. On the day of the experiment, cell culture media is carefully washed, and the cells are loaded with Calcium 5 Dye Kit (Molecular Devices) in dye loading buffer containing 137 mM NaCl, 4 mM KCl, 2 mM CaCl2, 0.5 mM MgCl2 (standard assay) or 1.5 mM MgCl2 (HTS assay), 10 mM HEPES and 5 mM D-glucose; pH 7.4. After 1 h incubation at the room temperature, the dye is washed away with the assay buffer (137 mM NaCl (standard assay) or 150 mM (HTS assay), 4 mM KCl (standard assay) or 3 mM (HTS assay), 2 mM CaCl2), 0.01 mM EDTA, 10 mM HEPES and 5 mM D-glucose; pH 7.4) In the FLIPR TETRA reader, various concentrations of the test compounds are added to the cells for 5 min while fluorescence is monitored to detect potential agonist activity. Next, co-agonists, glutamate and glycine are added for another 5 minutes. The concentration of glutamate corresponding to ˜EC40 (standard assay) or EC40 (HTS assay) is used to maximize the assay's signal window and ability to detect NMDA receptor antagonists and negative allosteric modulators. A saturating concentration (10 μM) of glycine is also present in the assay. A non-selective NMDA receptor antagonist, (+)MK-801 is used as a positive control for antagonist activity. The fluorescent signal in the presence of test compounds is quantified and normalized to the signal defined by the appropriate control wells.
# T1 sequence (Q13224 27-1484, other chains not shown): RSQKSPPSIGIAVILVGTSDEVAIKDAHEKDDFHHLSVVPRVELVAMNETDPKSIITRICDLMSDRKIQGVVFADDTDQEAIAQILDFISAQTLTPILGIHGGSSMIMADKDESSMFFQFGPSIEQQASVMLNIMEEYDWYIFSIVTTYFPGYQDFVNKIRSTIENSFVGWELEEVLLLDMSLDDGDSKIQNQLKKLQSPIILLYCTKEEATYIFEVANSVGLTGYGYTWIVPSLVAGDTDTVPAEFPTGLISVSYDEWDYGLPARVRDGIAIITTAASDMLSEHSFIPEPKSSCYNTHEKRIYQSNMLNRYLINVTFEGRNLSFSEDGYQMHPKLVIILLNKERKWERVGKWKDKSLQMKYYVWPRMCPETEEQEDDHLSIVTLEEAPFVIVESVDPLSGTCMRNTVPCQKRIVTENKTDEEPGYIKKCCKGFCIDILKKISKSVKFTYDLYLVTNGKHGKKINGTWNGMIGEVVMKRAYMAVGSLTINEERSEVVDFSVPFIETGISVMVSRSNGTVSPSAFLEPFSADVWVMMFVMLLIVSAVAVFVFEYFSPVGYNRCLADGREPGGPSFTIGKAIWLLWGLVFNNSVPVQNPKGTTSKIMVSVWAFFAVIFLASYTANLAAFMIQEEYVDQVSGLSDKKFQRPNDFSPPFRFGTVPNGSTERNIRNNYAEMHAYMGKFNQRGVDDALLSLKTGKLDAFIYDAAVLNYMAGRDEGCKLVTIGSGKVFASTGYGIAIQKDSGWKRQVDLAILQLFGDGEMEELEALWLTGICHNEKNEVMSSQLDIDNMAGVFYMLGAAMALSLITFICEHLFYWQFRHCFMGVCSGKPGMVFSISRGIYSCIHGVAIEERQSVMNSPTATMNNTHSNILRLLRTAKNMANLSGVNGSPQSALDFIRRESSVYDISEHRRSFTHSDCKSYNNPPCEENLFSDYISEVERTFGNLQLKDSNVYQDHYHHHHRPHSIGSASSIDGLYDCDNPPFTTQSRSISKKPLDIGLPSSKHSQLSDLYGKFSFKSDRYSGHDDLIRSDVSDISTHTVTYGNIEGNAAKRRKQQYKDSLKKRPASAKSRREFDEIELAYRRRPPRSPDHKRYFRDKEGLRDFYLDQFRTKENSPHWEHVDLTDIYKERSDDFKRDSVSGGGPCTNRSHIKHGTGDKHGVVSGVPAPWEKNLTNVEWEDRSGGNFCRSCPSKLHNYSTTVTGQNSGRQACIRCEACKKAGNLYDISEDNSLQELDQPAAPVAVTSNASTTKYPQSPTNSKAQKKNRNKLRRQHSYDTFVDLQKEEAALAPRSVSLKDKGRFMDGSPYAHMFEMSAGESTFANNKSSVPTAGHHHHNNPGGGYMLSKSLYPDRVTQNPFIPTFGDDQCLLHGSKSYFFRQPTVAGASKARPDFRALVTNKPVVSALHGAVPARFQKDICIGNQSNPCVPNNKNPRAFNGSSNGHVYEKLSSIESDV
row,IC50 [µM],Structure (SMILES)
1,0.467,"Cc1nnc(Cn2ncc3ncc(-c4ccnc(C(F)(F)F)c4)cc32)o1 [Example 88, 2-Methyl-5-[[6-[2-(trifluoromethyl)-4-pyridyl]pyrazolo[4,3-b]pyridin-1-yl]methyl]-1,3,4-oxadiazole]"
2,0.404,"Cc1cc(-c2cnc3cnn(Cc4cccnn4)c3c2)ccc1Cl [Example 267, 6-(4-Chloro-3-methyl-phenyl)-1-(pyridazin-3-ylmethyl)pyrazolo[4,3-b]pyridine]"
3,0.062,"Cc1cncc(Cn2ncc3ncc(-c4ccc(F)c(C)c4)cc32)c1 [Example 180, 6-(4-Fluoro-3-methyl-phenyl)-1-[(5-methyl-3-pyridyl)methyl]pyrazolo[4,3-b]pyridine trifluoroacetate salt]"
4,0.249,"Fc1cncc(Cn2ncc3ncc(-c4cccc(OC(F)F)c4)cc32)c1 [Example 159, 6-[3-(Difluoromethoxy)phenyl]-1-[(5-fluoro-3-pyridyl)methyl]pyrazolo[4,3-b]pyridine]"
5,0.04,"CC(F)(F)c1cccc(-c2cnc3cnn(Cc4cncc(F)c4)c3c2)c1 [Example 161, 6-[3-(1,1-Difluoroethyl)phenyl]-1-[(5-fluoro-3-pyridyl)methyl]pyrazolo[4,3-b]pyridine]"
6,0.226,"Fc1ccc(-c2cnc3cnn(Cc4cn[nH]c4)c3c2)cc1C(F)F [Example 38, 6-[3-(Difluoromethyl)-4-fluoro-phenyl]-1-(1H-pyrazol-4-ylmethyl)pyrazolo[4,3-b]pyridine]"
7,0.064,"N#Cc1cncc(Cn2ncc3ncc(-c4cccc(C(F)F)c4)cc32)c1 [Example 157, 5-[[6-[3-(Difluoromethyl)phenyl]pyrazolo[4,3-b]pyridin-1-yl]methyl]pyridine-3-carbonitrile]"
8,7.78,"COc1ncccc1Cn1ncc2ncc(-c3cccc(C(F)(F)F)c3)cc21 [Example 172, 1-[(2-Methoxy-3-pyridyl)methyl]-6-[3-(trifluoromethyl)phenyl]pyrazolo[4,3-b]pyridine trifluoroacetate salt]"
9,0.025,"Fc1cncc(Cn2ncc3ncc(-c4ccc(F)c(Cl)c4)cc32)c1 [Example 195, 6-(3-Chloro-4-fluoro-phenyl)-1-[(5-fluoro-3-pyridyl)methyl]pyrazolo[4,3-b]pyridine]"
10,3.24,"Cc1cnc(Cn2ncc3ncc(-c4cccc(C(F)(F)F)c4)cc32)nc1 [Example 287, 1-[(5-Methylpyrimidin-2-yl)methyl]-6-[3-(trifluoromethyl)phenyl]pyrazolo[4,3-b]pyridine]"
11,0.152,"COc1cncc(Cn2ncc3ncc(-c4ccc(F)c(Cl)c4)cc32)c1 [Example 196, 6-(3-Chloro-4-fluoro-phenyl)-1-[(5-methoxy-3-pyridyl)methyl]pyrazolo[4,3-b]pyridine]"
12,2.24,"Cc1cc(Cn2ncc3ncc(-c4cccc(C(F)(F)F)c4)cc32)ns1 [Example 64, 5-Methyl-3-[[6-[3-(trifluoromethyl)phenyl]pyrazolo[4,3-b]pyridin-1-yl]methyl]isothiazole]"
13,0.068,"Fc1c(-c2cnc3cnn(Cc4cncc(Cl)c4)c3c2)cccc1C(F)F [Example 213, 1-[(5-Chloro-3-pyridyl)methyl]-6-[3-(difluoromethyl)-2-fluoro-phenyl]pyrazolo[4,3-b]pyridine]"
14,0.161,"Cc1ccncc1Cn1ncc2ncc(-c3cccc(C(F)(F)F)c3)cc21 [Example 168, 1-[(4-Methyl-3-pyridyl)methyl]-6-[3-(trifluoromethyl)phenyl]pyrazolo[4,3-b]pyridine trifluoroacetate salt]"
15,0.031,"Fc1ccc(-c2cnc3cnn(Cc4ccno4)c3c2)cc1C(F)F [Example 50, 5-[[6-[3-(Difluoromethyl)-4-fluoro-phenyl]pyrazolo[4,3-b]pyridin-1-yl]methyl]isoxazole]"
16,0.018,"Cc1cc(Cn2ncc3ncc(-c4ccc(F)c(C(F)F)c4)cc32)no1 [Example 53, 3-[[6-[3-(Difluoromethyl)-4-fluoro-phenyl]pyrazolo[4,3-b]pyridin-1-yl]methyl]-5-methyl-isoxazole]"
17,0.253,"Fc1ccc(Cn2ncc3ncc(-c4ccc(F)c(Br)c4)cc32)cn1 [Example 235, 6-(3-Bromo-4-fluorophenyl)-1-((6-fluoropyridin-3-yl)methyl)-1H-pyrazolo[4,3-b]pyridine]"

row,IC50 [µM],Structure (SMILES)
1,0.21,"COc1cncc(Cn2ncc3ncc(-c4cccc(C(F)(F)F)c4)cc32)c1 [Example 173, 1-[(5-Methoxy-3-pyridyl)methyl]-6-[3-(trifluoromethyl)phenyl]pyrazolo[4,3-b]pyridine]"
2,0.17,"OCc1nnc(Cn2ncc3ncc(-c4ccc(F)c(C(F)F)c4)cc32)o1 [Example 292, (5-((6-(3-(Difluoromethyl)-4-fluorophenyl)-1H-pyrazolo[4,3-b]pyridin-1-yl)methyl)-1,3,4-oxadiazol-2-yl)methanol]"
3,0.143,"Cc1nnc(Cn2ncc3ncc(-c4ccc(C(F)(F)F)s4)cc32)o1 [Example 78, 2-Methyl-5-[[6-[5-(trifluoromethyl)-2-thienyl]pyrazolo[4,3-b]pyridin-1-yl]methyl]-1,3,4-oxadiazole]"
4,> 2.99,"CC(=O)Nc1nnc(Cn2ncc3ncc(-c4ccc(F)c(C(F)F)c4)cc32)s1 [Example 128, N-(5-((6-(3-(Difluoromethyl)-4-fluorophenyl)-1H-pyrazolo[4,3-b]pyridin-1-yl)methyl)-1,3,4-thiadiazol-2-yl)acetamide]"
5,0.31,"Cc1c(F)ccc(-c2cnc3cnn(Cc4ccccn4)c3c2)c1F [Example 244, 6-(2,4-Difluoro-3-methyl-phenyl)-1-(2-pyridylmethyl)pyrazolo[4,3-b]pyridine]"
6,0.5,"COc1cncc(Cn2ncc3ncc(-c4ccc(Cl)c(OC(F)F)c4)cc32)c1 [Example 242, 6-[4-Chloro-3-(difluoromethoxy)phenyl]-1-[(5-methoxy-3-pyridyl)methyl]pyrazolo[4,3-b]pyridine]"
7,0.85,"COc1nnc(Cn2ncc3ncc(-c4ccc(F)c(C(F)F)c4)cc32)s1 [Example 127, 2-[[6-[3-(difluoromethyl)-4-fluoro-phenyl]pyrazolo[4,3-b]pyridin-1-yl]methyl]-5-methoxy-1,3,4-thiadiazole]"
8,0.189,"Cc1cncc(Cn2ncc3ncc(-c4ccc(F)c(C(C)(F)F)c4)cc32)c1 [Example 217, 6-[3-(1,1-Difluoroethyl)-4-fluoro-phenyl]-1-[(5-methyl-3-pyridyl)methyl]pyrazolo[4,3-b]pyridine]"
9,0.414,"Fc1ccc(-c2cnc3cnn(Cc4nnc(C(F)(F)F)o4)c3c2)cc1OC(F)F [Example 115, 2-[[6-[3-(Difluoromethoxy)-4-fluoro-phenyl]pyrazolo[4,3-b]pyridin-1-yl]methyl]-5-(trifluoromethyl)-1,3,4-oxadiazole]"
10,0.4,"Cc1noc(Cn2ncc3ncc(-c4ccc(F)c(C(F)(F)F)c4)cc32)n1 [Example 110, 5-[[6-[4-Fluoro-3-(trifluoromethyl)phenyl]pyrazolo[4,3-b]pyridin-1-yl]methyl]-3-methyl-1,2,4-oxadiazole]"
11,1.96,"Cc1nnc(Cn2ncc3ncc(-c4ccc(F)c(C(F)F)c4)cc32)[nH]1 [Example 13, 6-[3-(Difluoromethyl)-4-fluoro-phenyl]-1-[(5-methyl-4H-1,2,4-triazol-3-yl)methyl]pyrazolo[4,3-b]pyridine]"
12,0.028,"COc1cncc(Cn2ncc3ncc(-c4ccc(F)c(C(F)F)c4)cc32)c1 [Example 207, 6-[3-(Difluoromethyl)-4-fluoro-phenyl]-1-[(5-methoxy-3-pyridyl)methyl]pyrazolo[4,3-b]pyridine]"
13,0.104,"Cc1cnc(Cn2ncc3ncc(-c4ccc(F)c(OC(F)F)c4)cc32)s1 [Example 69, 2-[[6-[3-(Difluoromethoxy)-4-fluoro-phenyl]pyrazolo[4,3-b]pyridin-1-yl]methyl]-5-methyl-thiazole]"
14,0.67,"Fc1ccc(-c2cnc3cnn(Cc4cccnn4)c3c2)cc1F [Example 266, 6-(3,4-Difluorophenyl)-1-(pyridazin-3-ylmethyl)pyrazolo[4,3-b]pyridine]"
15,0.09,"FC(F)Oc1cc(-c2cnc3cnn(Cc4cncnc4)c3c2)ccc1Cl [Example 279, 6-[4-Chloro-3-(difluoromethoxy)phenyl]-1-(pyrimidin-5-ylmethyl)pyrazolo[4,3-b]pyridine]"
16,0.126,"Cc1nnc(Cn2nc(F)c3ncc(-c4cccc(C(C)(F)F)c4)cc32)o1 [Example 83, 2-[[6-[3-(1,1-Difluoroethyl)phenyl]-3-fluoro-pyrazolo[4,3-b]pyridin-1-yl]methyl]-5-methyl-1,3,4-oxadiazole]"
17,0.045,"Fc1cncc(Cn2ncc3ncc(-c4cc(F)cc(F)c4)cc32)c1 [Example 185, 6-(3,5-Difluorophenyl)-1-[(5-fluoro-3-pyridyl)methyl]pyrazolo[4,3-b]pyridine]"
